These are literature values, as cited in US6582498B1, “Method of separating carbon dioxide from a gas mixture using a fluid dynamic instability” (Battelle Memorial Institute, priority 2001, dated 2003).

Take `NCCO` [MEA, monoethanolamine]: in the data set with rabbit, the “eye irritation (for rabbit)” value is reported as 0.763 milligrams. Besides, in the data set with rat, the “LD50 (oral for rat)” value is listed as 2,050 mg/kg. The LD50 (intraperitoneal for mouse) with mouse is 50 mg/kg.
